# How the values were obtained:
# PDE9 = PDE9 (Homo sapiens (Human), UniProt O76083); test: PDE9-inhibiting activity (SPA enzyme assay); type: biochemical; details: IC50 values; cGMP 1 μM substrate, 30° C.; read-out: PDE9 inhibition
# Protocol: The PDE9-inhibiting activity was measured by the following method. That is, to a buffer solution containing tris(hydroxymethyl)aminomethane-hydrochloric acid (40 mM, pH 8.0), magnesium chloride (5 mM), and 2-mercaptoethanol (4 mM) were added cGMP (1 μM) and ^3H-cGMP (0.33 μCi/ml) to give a substrate buffer solution. A test substance solution and an enzyme solution which had been adjusted to an optimal concentration were added thereto to perform a reaction at 30° C. The enzyme reaction was stopped by the addition of Scintillation Proximity Assay (SPA) Beads (Perkin Elmer, USA) containing 5 mM 3-isobutyl-1-methylxanthine (IBMX). For the enzyme activity, the amount of 5′-GMP, which is a reaction degradation product bound to SPA beads, was measured with a TopCount microplate reader (Hewlett Packard, USA). The inhibitory rate was calculated by taking the radioactivity of the control containing no test substance as (A), taking the radioactivity of the blank containing no enzyme as (B), and taking the radioactivity of the test substance as (C), and using the following equation.
# [1] = system: urethra relaxation response; test: Simultaneous measurement model for rat bladder contraction/urethra relaxation responses; type: in vivo; details: female SD rat, increase relative to the solvent administration group, read-out: Ratio with increased urethra relaxation time during voiding (vs vehicle) (%)
# Protocol: Simultaneous measurement of the bladder contraction and urethra relaxation responses using a rat was carried out with a partial modification of a method in Wibberley et al. (Wibberley, A., et al., Br. J. Pharmacol., 136: pp. 399-414 (2002)). That is, a female Sprague-Dawley (SD) rat (Charles River Laboratories Japan, Inc.) was anesthetized with urethane, and the bladder was exposed by a midline incision in the lower abdomen. A double lumen cannula (a cannula having a dual structure by PE190 and PE50) from the bladder apex was inserted into the bladder, and the bladder apex and the cannula were fixed by sutures at a point where the tip reached the proximal urethra. While infusing physiological saline into the urethra through the outer cannula, the urethral inner pressure was measured by a pressure transducer through the inner cannula with a saline solution infused into the urethra through the outer cannula. On the other hand, a single cannula (PESO) was inserted into the bladder from the bladder apex and placed therein. The inner pressure of the bladder was measured through this cannula. After a postoperative stabilization period had passed, physiological saline was infused into the bladder through the cannula of the bladder apex to cause a bladder contraction reaction, and thus cause a urethra relaxation response accompanying the bladder contraction reflex. The test substance was administered intravenously or intraduodenally.
# Sequence of PDE9 (O76083 whole entry): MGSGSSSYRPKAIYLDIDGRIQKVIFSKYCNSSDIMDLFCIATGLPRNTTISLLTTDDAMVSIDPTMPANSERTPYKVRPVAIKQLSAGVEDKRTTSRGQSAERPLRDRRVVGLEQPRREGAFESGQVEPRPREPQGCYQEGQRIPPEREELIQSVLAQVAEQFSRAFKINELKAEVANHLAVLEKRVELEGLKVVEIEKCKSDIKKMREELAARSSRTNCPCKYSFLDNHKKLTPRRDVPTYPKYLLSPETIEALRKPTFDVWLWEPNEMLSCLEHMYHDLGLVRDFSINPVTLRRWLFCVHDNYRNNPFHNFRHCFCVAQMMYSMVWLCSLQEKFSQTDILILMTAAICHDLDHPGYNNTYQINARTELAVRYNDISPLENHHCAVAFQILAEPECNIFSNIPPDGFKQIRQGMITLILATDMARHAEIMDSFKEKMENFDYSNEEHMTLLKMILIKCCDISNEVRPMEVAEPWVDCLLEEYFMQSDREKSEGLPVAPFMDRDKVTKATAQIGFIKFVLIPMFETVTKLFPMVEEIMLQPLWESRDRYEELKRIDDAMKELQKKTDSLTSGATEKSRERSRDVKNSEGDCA
IC50 (PDE9),melting point,SMILES,response vs control in vivo at 1 mg/kg [1]
14 nM,209 to 210 °C,Cc1cc2[nH]c(=O)c3cnn(C4CCOCC4)c3c2cc1C(=O)N1CCC(OC[C@H](C)F)CC1 [Example 95],166%
5.2 nM,174 to 176 °C,Cc1cc2[nH]c(=O)c3cnn(C4CCOCC4)c3c2cc1C(=O)N1CCN(CCC(F)(F)F)CC1.Cl [Example 128],136%

# — patent publication US8822448B2, “Pyrazoloquinoline compound” (Astellas Pharma Inc., priority 2010, dated 2014)
